From PMC4584354, “Synthesis and Antiplasmodial Evaluation of Analogues Based on the Tricyclic Core of Thiaplakortones A–D” (Marine Drugs, 2015)
Where two headings read alike, the source gives them in different places.

Legend:
[1] = tested on: P. falciparum multidrug-resistant line (Dd2); experiment: P. falciparum growth inhibition assay ([3H]-hypoxanthine isotopic microtest), Dd2 line; assay type: cell-based; conditions: Plasmodium falciparum, read-out: Mean IC50 ± SD, Dd2
Method: (§1) P. falciparum growth inhibition assays were carried out using an isotopic microtest, as previously described [16]. […] The final concentration of DMSO vehicle was <0.5% in all assay wells (non-toxic). After 48 h cells were harvested onto 1450 MicroBeta filter mats (PerkinElmer, Waltham, Massachusetts, USA) and [^3H] incorporation determined using a 1450 MicroBeta liquid scintillation counter. Percentage inhibition of growth compared to matched DMSO controls was determined and IC50 values were calculated using linear interpolation of inhibition curves [17]. The mean IC50 or % inhibition (±SD) was calculated for three independent experiments, each carried out in triplicate.

[2] = tested on: P. falciparum chloroquine-sensitive line (3D7); experiment: P. falciparum growth inhibition assay ([3H]-hypoxanthine isotopic microtest), 3D7 line; assay type: cell-based, Plasmodium falciparum; conditions: for increase in 3D7 activity on exchanging saturated system (13, 14) for unsaturated motif: 15 vs 13, 16 vs 14; for IC50: Plasmodium falciparum, read-out: Mean IC50 ± SD, 3D7
Method: as §1

[3] = tested on: neonatal foreskin fibroblast (NFF) cells; experiment: Mammalian toxicity using human neonatal foreskin fibroblast cells; assay type: cell-based; conditions: for IC50: Homo sapiens, NFF, read-out: Mean IC50 ± SD, NFF; for SI (selectivity index = NFF cell-line IC50/P. falciparum IC50): range over 3D7 and Dd2 lines
[4] = tested on: P. falciparum multidrug-resistant line (Dd2); design: method as in PMID 24032556; conditions: read-out: in vitro IC50, Dd2; cited from earlier work
[5] = tested on: P. falciparum chloroquine-sensitive line (3D7); design: method as in PMID 24032556; conditions: chloroquine-sensitive (3D7) P. falciparum line; read-out: in vitro IC50, 3D7; cited from earlier work
Plasmodium falciparum = experiment: In vitro P. falciparum growth inhibition (line not given); assay type: cell-based; conditions: 3D7 and Dd2 lines
[6] = design: method as in PMID 25490858; conditions: cited from earlier work
blood stage P. berghei = tested on: blood stage P. berghei; design: method as in PMID 25490858; conditions: mice, subcutaneous 32 mg/kg twice daily for 4 d; cited from earlier work
[7] = design: method as in PMID 25490858; conditions: cited from earlier work; remark: listed apart in the source
[8] = design: method as in PMID 25490858; conditions: subcutaneous 32 mg/kg twice daily for 4 d; cited from earlier work
[9] = design: method as in PMID 25490858; conditions: administered subcutaneously to mice; remained above this level for 8 h; cited from earlier work
[10] = P. falciparum multidrug-resistant line Dd2, 48 h, three independent experiments in triplicate
[11] = P. falciparum chloroquine-sensitive line 3D7, 48 h, three independent experiments in triplicate
[12] = neonatal foreskin fibroblast cells

For `O=C1C2=C(C(=O)c3[nH]ccc31)S(=O)(=O)C=CN2` [Compound 15], the IC50 [1, 10] was 0.129 ± 0.0039 µM, the “increase in 3D7 activity on exchanging saturated system (13, 14) for unsaturated motif” value [2] was 23.9 fold and the IC50 [2, 11] was 0.313 ± 0.084 µM. For the same compound, the IC50 [3, 12] was 2.8 ± 0.4 µM and the “SI (selectivity index = NFF cell-line IC50/P. falciparum IC50)” value [3] was 8.9–21.7.

For `O=C1C2=C(NC=CS2(=O)=O)C(=O)c2[nH]ccc21` [Compound 16], the IC50 [1, 10] was 0.127 ± 0.0086 µM, the “increase in 3D7 activity on exchanging saturated system (13, 14) for unsaturated motif” value [2] was 27.3 fold and the IC50 [2, 11] was 0.252 ± 0.035 µM. For the same compound, the IC50 [3, 12] was 4.6 ± 0.8 µM and the “SI (selectivity index = NFF cell-line IC50/P. falciparum IC50)” value [3] was 18.2–36.2.

Work on `Cc1ccc(S(=O)(=O)n2ccc3c2C(=O)C2=C(NCCS2(=O)=O)C3=O)cc1` [Compound 11] yielded an IC50 [1, 10] of 0.509 ± 0.309 µM, an IC50 [2, 11] of 0.546 ± 0.119 µM and an IC50 [3, 12] of 1.4 ± 0.7 µM.

In the case of `NCCc1c[nH]c2c1C(=O)C1=C(NC=CS1(=O)=O)C2=O` [Thiaplakortone A, thiaplakortone A], the IC50 [4] is listed as 0.0066 µM and the IC50 [5] is listed as 0.051 µM.

With `O=C1C=CC(=O)c2[nH]ccc21` [Compound 17, 1H-indole-4,7-dione] the IC50 [1, 10] was 11.5 µM, the IC50 [2, 11] was 13.5 µM and the “antiplasmodial activity” value (Plasmodium falciparum) was “essentially inactive”. For the same compound, the IC50 [3, 12] was 4.7 ± 0.1 µM and the “SI (selectivity index = NFF cell-line IC50/P. falciparum IC50)” value [3] was 0.3–0.4.

In the case of `O=C1C2=C(NCCS2(=O)=O)C(=O)c2[nH]ccc21` [Compound 14], the IC50 [1, 10] is reported as 3.7 ± 0.5 µM, the IC50 [2, 11] is reported as 6.9 ± 0.7 µM and the IC50 [3, 12] is reported as 69.6 µM. The “SI (selectivity index = NFF cell-line IC50/P. falciparum IC50)” value [3] was 10.1–18.8.

In the case of `Cc1ccc(S(=O)(=O)n2ccc3c2C(=O)C=CC3=O)cc1` [Compound 10, 1-tosyl-1H-indole-4,7-dione], the IC50 [1, 10] is reported as 11.1 µM, the IC50 [2, 11] is reported as 18.2 µM and the “antiplasmodial activity” value (Plasmodium falciparum) is reported as “essentially inactive”. For the same compound, the IC50 [3, 12] was 7.6 ± 1.2 µM and the “SI (selectivity index = NFF cell-line IC50/P. falciparum IC50)” value [3] was 0.4–0.7.

`O=C1C2=C(C(=O)c3[nH]ccc31)S(=O)(=O)CCN2` [Compound 13] gave an IC50 [1, 10] of 3.8 ± 0.4 µM, an IC50 [2, 11] of 7.5 ± 0.9 µM and an IC50 [3, 12] of 39 µM. The “SI (selectivity index = NFF cell-line IC50/P. falciparum IC50)” value [3] was 5.2–10.3.

With `CCN(CC)CCCC(C)Nc1ccnc2cc(Cl)ccc12` (stereo not drawn) [CQ, chloroquine, reference compound] the IC50 ([1]; DD2, 48 h) was 0.045 ± 0.01 µM, the IC50 ([2]; 3D7, 48 h) was 0.0078 ± 0.0027 µM and the IC50 [3] was 36.5 µM. The “SI (selectivity index = NFF cell-line IC50/P. falciparum IC50)” value [3] was 811.1–4679.5.

For `CC(=O)NCCc1c[nH]c2c1C(=O)C1=C(NC=CS1(=O)=O)C2=O` [Compound 8], the metabolic stability [6] is listed as “good”, the “suppression of blood stage P. berghei parasitemia relative to controls” value (blood stage P. berghei) is listed as 52% and the solubility [7] is listed as “good”. For the same compound, the tolerability in mice [8] was “well tolerated” and the plasma concentration [9] was over 200 nM.

In the case of `CCCCNC(=O)NCCc1c[nH]c2c1C(=O)C1=C(NC=CS1(=O)=O)C2=O` [Compound 9], the metabolic stability [6] is given as “good”, the “suppression of blood stage P. berghei parasitemia relative to controls” value (blood stage P. berghei) is given as 26% and the solubility [7] is given as “good”. The tolerability in mice [8] was “well tolerated” and the plasma concentration [9] was over 200 nM.

Work on `Cc1ccc(S(=O)(=O)n2ccc3c2C(=O)C2=C(C3=O)S(=O)(=O)CCN2)cc1` [Compound 12] yielded an IC50 [1, 10] of 0.607 ± 0.158 µM, an IC50 [2, 11] of 0.834 ± 0.089 µM and an IC50 [3, 12] of 19 µM. For the same compound, the “SI (selectivity index = NFF cell-line IC50/P. falciparum IC50)” value [3] was 22.8–31.3.
